{"source": "patent US10898609B2", "about": "“Tissue decellularization methods” (priority 2015, dated 2021)", "format_in_all_cases": "cell-based, Sprague Dawley rats", "key": {"peripheral nerve [1]": {"system": "peripheral nerve", "test": "Total DNA content of decellularized peripheral nerve, Picogreen DNA assay", "settings": "1 day", "description": "Peripheral nerves were harvested from Sprague Dawley rats and decellularized according to an apoptosis-assisted protocol using 5 μM camptothecin in non-supplemented media at 37° C. for 1 day. Tissue in media without camptothecin, an apoptotic agent, was used as a control. Apoptotic agent treatment was succeeded by washes in saline buffered solutions to optimize cell removal. Furthermore, the tissue was treated with 75 u/mL DNAse for 24 hours to ensure DNA removal. The degree of apoptosis, cellular removal, and matrix preservation was assessed using immunochemistry on nerve tissue sections and fluorescence imaging (FIG. 2). Antibodies used to identify apoptosis, cell removal, and tissue preservation include those against active caspase 3 (Abcam); neurofilament (RT-97, DSHB) and S100 (Dako); and laminin (Sigma), respectively. […] FIGS. 2B and 2C show nerves treated with 5 μM for 1 day, washed with a hypertonic, and either washed with a hypertonic solution or treated for 24 hours with DNAse, respectively. […] FIGS. 2E and 2F show treatment with higher camptothecin (10 μM), again for 1 day, and washed similarly to tissue in FIGS. 2B and 2C. These images depict 1) apoptosis induction is necessary prior to washing to effectively remove cellular components and 2) combing apoptosis induction with washes in non-isotonic solutions achieves cellular removal of peripheral nerve tissue. Total DNA content was quantified using a Picogreen DNA assay (Life Technologies) according to manufacturer's instructions."}, "active caspase 3": {"system": "active caspase 3", "test": "Immunochemistry for active caspase 3 on nerve tissue sections", "settings": "10 μM camptothecin, 2 days, 37° C., ex vivo nerve; vs media control", "description": "(§1) Peripheral nerves were harvested from Sprague Dawley rats and decellularized according to an apoptosis-assisted protocol using 10 μM camptothecin in non-supplemented media at 37° C. for 2 days. Tissue in media without camptothecin was used as a control. Apoptotic agent treatment was succeeded by washes in saline buffered solutions to optimize cell removal. The degree of apoptosis, cellular removal, and matrix preservation was assessed using immunochemistry on nerve tissue sections and fluorescence imaging. Antibodies used to identify apoptosis, cell removal, and tissue preservation include those against active caspase 3 (Abcam); neurofilament (RT-97, DSHB) and S100 (Dako); and laminin (Sigma), respectively. […] Total DNA content was quantified using a Picogreen DNA assay (Life Technologies) according to manufacturer's instructions."}, "peripheral nerve [2]": {"system": "peripheral nerve", "test": "TUNEL assay of apoptosis-mediated DNA fragmentation in nerve tissue", "settings": "10 μM camptothecin, 2 days, 37° C., ex vivo nerve; vs media control", "description": "as §1"}}}
{"smiles": "CC[C@@]1(O)C(=O)OCc2c1cc1n(c2=O)Cc2cc3ccccc3nc2-1", "note": "[camptothecin]", "values": [{"measurement": "reduction in DNA content compared to fresh nerve", "setting": "peripheral nerve [1]; 5 μM camptothecin, 37° C., hypertonic and hypotonic washes", "result": 71.9, "unit": "%"}, {"measurement": "reduction in DNA content compared to fresh nerve", "setting": "peripheral nerve [1]; 5 μM camptothecin, hypotonic wash replaced with DNAse treatment (75 u/mL, 24 hours)", "result": 95.1, "unit": "%"}, {"measurement": "reduction in DNA content compared to fresh nerve", "setting": "peripheral nerve [1]; 10 μM camptothecin, hypertonic and hypotonic washes", "result": 57.3, "unit": "%"}, {"measurement": "reduction in DNA content compared to fresh nerve", "setting": "peripheral nerve [1]; 10 μM camptothecin, hypotonic wash replaced with DNAse treatment (75 u/mL, 24 hours)", "result": 95.8, "unit": "%"}, {"measurement": "active caspase 3 (early mediator of apoptosis)", "setting": "active caspase 3", "result": "caspase 3 activation"}, {"measurement": "DNA fragmentation (TUNEL staining)", "setting": "peripheral nerve [2]", "result": "DNA fragmentation"}]}
